Source: publication PMC10884005, “Euglena’s atypical respiratory chain adapts to the discoidal cristae and flexible metabolism” (Nature Communications, 2024)

Experiments:
S. scrofa CI = target: T1, S. scrofa CI (Sus scrofa, UniProt A0A4X1SZP7); assay: NADH oxidation at […] nm; format: biochemical; details: 200 μM DQ, 300 μM NADH, pH 7.4; thermal deactivation assay
T1 construct: gene NDUFV1; native purified mitochondrial complex I; with NADH dehydrogenase [ubiquinone] flavoprotein 2, mitochondrial; NADH-ubiquinone oxidoreductase 75 kDa subunit, mitochondrial

[1] = target: T2, Eg-CI (ubiquinone / rotenone site); assay: NADH-DQ oxidoreductase, NADH oxidation at […] nm; format: biochemical, Euglena gracilis; details: 10 nM Eg-CI, 200 μM decylubiquinone, 250 μM NADH, pH 7.4, 0.1% digitonin, room temperature
T2 construct: gene ND1; native mitochondrial complex I, LMNG-solubilised, 59 subunits (16 core), ion exchange and SEC; cells catalogue GY-D32; with NADH dehydrogenase [ubiquinone] flavoprotein 1, mitochondrial; NADH-ubiquinone oxidoreductase 75 kDa subunit, N-terminal part; NADH-ubiquinone oxidoreductase 75 kDa subunit, C-terminal part

T1 sequence (A0A4X1SZP7 21-464): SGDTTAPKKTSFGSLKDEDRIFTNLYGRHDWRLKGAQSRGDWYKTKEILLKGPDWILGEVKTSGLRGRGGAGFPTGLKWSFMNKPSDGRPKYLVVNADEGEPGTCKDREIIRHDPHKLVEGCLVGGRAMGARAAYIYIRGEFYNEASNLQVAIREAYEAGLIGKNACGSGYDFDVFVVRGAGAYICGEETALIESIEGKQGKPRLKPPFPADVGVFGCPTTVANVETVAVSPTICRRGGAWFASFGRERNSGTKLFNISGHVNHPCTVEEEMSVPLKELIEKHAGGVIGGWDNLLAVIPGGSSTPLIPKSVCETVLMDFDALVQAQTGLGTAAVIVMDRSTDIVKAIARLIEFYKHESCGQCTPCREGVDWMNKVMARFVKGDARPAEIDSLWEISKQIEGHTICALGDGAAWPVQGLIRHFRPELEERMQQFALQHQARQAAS

Row | Compound | NADH oxidation at 340 nm (S. scrofa CI) | IC50 [1] [µM]
1 | NC(=O)C1=CN([C@@H]2O[C@H](COP(=O)(O)OP(=O)(O)OC[C@H]3O[C@@H](n4cnc5c(N)ncnc54)[C@H](O)[C@@H]3O)[C@@H](O)[C@H]2O)C=CC1 [NADH] | Thermal deactivation assays of S. scrofa CI (a) | –
2 | C=C(C)[C@H]1Cc2c(ccc3c2O[C@@H]2COc4cc(OC)c(OC)cc4[C@@H]2C3=O)O1 [rotenone] | – | ~11
